Measured values from US11219607B2, “Methods for suppressing cancer-related cachexia” (Ohio State Innovation Foundation, priority 2013, dated 2022).

What was measured:
Assay type in all cases: in vivo, CD2F1 mice
[1] = test system: gastrocnemius muscle fibers of C-26 tumor-bearing mice; assay: Morphometric analysis of muscle fiber size, C-26 model; conditions: day 15, tumor-bearing/vehicle 1297.6±638.8, tumor-free control 2503.5±917.5, mean±S.D.
Protocol: Ten-μm sections were cut from frozen skeletal muscle samples using a cryostat (Leica) and then stained with H&E. Images were captured using an Olympus BX51 microscope (Olympus America, Inc.) and muscle fiber cross-sectional areas were determined using Olympus CellSens 1.11 software. Measurements were obtained from five different sections of muscle from each of five mice from each group.
The protective effect of AR-42 against muscle wasting was manifested by the abrogation of cachexia-induced reduction in skeletal muscle fiber size. […] The prominent shift in fiber size distribution to smaller cross-sectional area in cachectic muscles of tumor-bearing/vehicle mice was reversed by AR-42 (FIG. 2A, right)

C-26 tumor-bearing mice = assay: Survival and body weight comparison of HDAC inhibitors, C-26 model; conditions: day 21, 50 mg/kg every other day orally from day 6
Protocol: In one aspect, tumors were established by subcutaneous injection of C-26 cells (0.5×10^6 cells in 0.1 ml) into the right flank of male CD2F1 mice (approximately 6 weeks of age; Harlan Laboratories, Indianapolis, Ind.)(11). Tumor-bearing mice, as well as tumor-free mice serving as non-cachectic controls, were randomized into groups that were treated with either AR-42 (50 mg/kg, p.o. by gavage, every other day; Arno Therapeutics, Inc., Flemington, N.J.) or vehicle (0.5% methylcellulose (w/v) and 0.1% Tween-80 (v/v) in sterile water) starting 6 days after cell injection. To investigate the effect of delayed treatment, treatments with drug and/or vehicle were started 6, 10 and 12 days after cancer cell injection.
In another aspect, the effects of AR-42 were compared to other HDAC inhibitors. […]
The effects of AR-42 were compared to other HDAC inhibitors (i.e., vorinostat and romidepsin) in C-26 tumor-bearing mice. Starting on day 6 after tumor cell injection, mice were treated continuously with AR-42 (50 mg/kg every other day, orally), vorinostat [50 mg/kg once daily, orally (13)], romidepsin [0.6 mg/kg twice weekly, i.p. (14)], or vehicle, until weight loss, as determined by daily body weight measurements and subtraction of tumor mass, reached 20% of starting weight. […]

Atrogin-1/MAFbx mRNA = assay: qPCR of gastrocnemius muscle, C-26 model: Atrogin-1; conditions: C-26 tumor-bearing mice, 15 days after tumor cell injection, tumor-bearing/vehicle 29.4±3.5-fold, mean±S.D.
Protocol: (§1) Total RNA was isolated from homogenized gastrocnemius muscles (n=3/group) with TRIzol reagent (Life Technologies, Carlsbad, Calif.) and then purified using the RNAeasy Mini Kit (Qiagen, Valencia, Calif.). qRT-PCR was performed as described previously (42) by using the Bio-Rad CFX96 Real-Time PCR Detection System with iQ SYBR Green Supermix (Bio-Rad, Hercules, Calif.). RNA-seq library generation and data analysis were performed at The Ohio State University Comprehensive Cancer Center (OSUCCC) Nucleic Acid Shared Resource.
(§2) AR-42 was able to restore expression of Atrogin-1 (2.7±0.7-fold) and MuRF1 (1.1±0.2-fold) mRNA to basal levels […].

MuRF1 mRNA = assay: qPCR of gastrocnemius muscle, C-26 model: MuRF1; conditions: C-26 tumor-bearing mice, 15 days after tumor cell injection, tumor-bearing/vehicle 25.8±3.9-fold, mean±S.D.
Protocol: as §1, §2

[2] = test system: leukemia inhibitory factor (LIF); assay: Serum cytokine profiling, C-26 model: LIF; conditions: C-26 tumor-bearing mice, day 17; tumor-bearing/vehicle 19.7±9.3, tumor-free/vehicle 1.7±1.5
Excerpt: (§3) Gastrocnemius muscles and sera were collected at day 17 post-cell injection from each treatment group (n=8/group). Muscle was submitted to Metabolon, Inc. (Durham, N.C.) for metabolomic analysis of 270 metabolic intermediates via proprietary mass spectrometry platforms. Serum was submitted to Eve Technologies (Alberta, Canada) for analysis of 32 cytokines using a mouse cytokine array (32-plex panel).
(§4) To shed light onto the mechanism by which AR-42 mediated its anti-cachectic effect, sera and gastrocnemius muscle from vehicle- or AR-42-treated tumor-free and C-26 tumor-bearing mice were used for cytokine profiling analysis and whole transcriptome shotgun sequencing (RNA-seq), respectively.

TNF = assay: Serum cytokine profiling, C-26 model: TNF; conditions: C-26 tumor-bearing mice
Excerpt: as §3, §4

[3] = test system: global gene expression in muscle of C-26 tumor-bearing mice; assay: RNA-seq of gastrocnemius muscle, C-26 model
Protocol: as §1
Data analysis was conducted by using SAS 9.3 software (SAS, Inc; Cary, N.C.). For the experiments with repeated measures, data were analyzed by mixed effect models, incorporating observational dependencies across each subject. For other experiments involving independent groups, data were analyzed by ANOVA. For the time-to-event experiment (FIG. 2B), the difference in survival functions were compared by log-rank tests. Multiplicities were adjusted by Holm's method to control the overall family-wise error rate at 0.05. RNA-seq data were analyzed by using Ingenuity Pathway Analysis (IPA) software (Ingenuity Systems, Redwood City, Calif.). Only genes with >4-fold change and P<0.05 were selected for pathway analysis. […]
RNA quality was assessed on an Agilent 2100 Bioanalyzer using a Pico RNA chip and the input total RNA amount was assessed using Agilent Qubit RNA assay. […] The resultant libraries were assessed for quantity and quality using Agilent Qubit DNA assay and with PerkinElmer Labchip DNA GX analysis, respectively. All libraries were mixed in equal proportions generating pools of samples that would yield approximately 40 million passed filter reads when sequenced on Illumina HiSeq 2500 sequencer. The raw sequencing data from the Illumina HiSeq CASAVA pipeline were assessed for quality using FastQC, RNASeQC and RSeQC software. […]

With `CC(C)[C@H](C(=O)Nc1ccc(C(=O)NO)cc1)c1ccccc1` [AR-42, (S)—N-hydroxy-4-(3-methyl-2-phenylbutanamido)benzamide] the “mean cross-sectional area of muscle fibers” value [1] was 2146.3±923.4 μm^2, the “cumulative survival (weight loss below 20% of starting weight)” value (C-26 tumor-bearing mice) was 100% and the “Atrogin-1 mRNA level relative to tumor-free/vehicle control” value (Atrogin-1/MAFbx mRNA) was 2.7±0.7 fold. The “MuRF1 mRNA level relative to tumor-free/vehicle control” value (MuRF1 mRNA) was 1.1±0.2 fold, the “serum LIF level” value [2] was 3.8 ± 1.6 pg/mL and the “effect on serum TNF levels” value (TNF) was “no effect”. The “number of downregulated genes (4-fold or greater), AR-42- versus vehicle-treated tumor-bearing mice” value [3] was 301 genes, the “number of upregulated genes (4-fold or greater), AR-42- versus vehicle-treated tumor-bearing mice” value [3] was 376 genes and the “number of genes with 4-fold or greater differential expression, AR-42- versus vehicle-treated tumor-bearing mice” value ([3]; total) was 677 genes.
